Measurements reported in patent US5916905A, “2,3-substituted pyridines for the treatment of inflammation” (G. D. Searle & Co., priority 1997, dated 1999).

Legend:
COX-1 [1] = molecular target: T1, COX-1 (Mus musculus, UniProt P22437); assay: COX-1 activity in vitro, recombinant murine enzyme (PGE2 ELISA); format: biochemical; conditions: murine (m); 10 μM arachidonic acid, 10-20 min pre-incubation; read-out: COX-1 ID50
T1 construct: A 2.0 kb fragment containing the coding region; made in house; host or cells: SF9 insect cells (baculovirus, pVL1393)
T1 sequence (P22437 27-602): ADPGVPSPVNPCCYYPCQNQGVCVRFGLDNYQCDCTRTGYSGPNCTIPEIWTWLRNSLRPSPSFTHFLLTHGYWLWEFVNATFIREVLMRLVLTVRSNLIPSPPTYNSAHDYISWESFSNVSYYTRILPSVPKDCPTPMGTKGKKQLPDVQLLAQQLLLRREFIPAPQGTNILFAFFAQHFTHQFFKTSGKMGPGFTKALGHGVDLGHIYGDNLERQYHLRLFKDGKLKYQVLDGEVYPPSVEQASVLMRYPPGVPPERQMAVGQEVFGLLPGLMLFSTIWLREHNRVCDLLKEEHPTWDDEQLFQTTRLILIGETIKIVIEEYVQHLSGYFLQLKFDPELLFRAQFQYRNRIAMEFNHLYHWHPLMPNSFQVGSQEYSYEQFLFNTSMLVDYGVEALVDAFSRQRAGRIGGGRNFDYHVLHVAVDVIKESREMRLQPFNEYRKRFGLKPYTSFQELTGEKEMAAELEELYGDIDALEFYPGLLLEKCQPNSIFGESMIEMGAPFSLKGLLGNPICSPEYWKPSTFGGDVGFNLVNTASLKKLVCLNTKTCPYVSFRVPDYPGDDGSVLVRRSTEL
Protocol: (§1) The COX-2 inhibition activity of the compounds of this invention illustrated in the Examples was determined by the following methods.
(§2) Recombinant COX-1 and COX-2 were prepared as described by Gierse et al, [J. Biochem., 305, 479-84 (1995)]. A 2.0 kb fragment containing the coding region of either human or murine COX-1 or human or murine COX-2 was cloned into a BamH1 site of the baculovirus transfer vector pVL1393 (Invitrogen) to generate the baculovirus transfer vectors for COX-1 and COX-2 in a manner similar to the method of D. R. O'Reilly et al (Baculovirus Expression Vectors: A Laboratory Manual (1992)). Recombinant baculoviruses were isolated by transfecting 4 μg of baculovirus transfer vector DNA into SF9 insect cells (2×10^8) along with 200 ng of linearized baculovirus plasmid DNA by the calcium phosphate method. See M. D. Summers and G. E. Smith, A Manual of Methods for Baculovirus Vectors and Insect Cell Culture Procedures, Texas Agric. Exp. Station Bull. 1555 (1987). Recombinant viruses were purified by three rounds of plaque purification and high titer (10^7 -10^8 pfu/ml) stocks of virus were prepared. For large scale production, SF9 insect cells were infected in 10 liter fermentors (0.5×10^6 /ml) with the recombinant baculovirus stock such that the multiplicity of infection was 0.1. After 72 hours the cells were centrifuged and the cell pellet homogenized in Tris/Sucrose (50 mM: 25%, pH 8.0) containing 1% 3-[(3-cholamidopropyl)dimethylammonio]-1-propanesulfonate (CHAPS). The homogenate was centrifuged at 10,000×G for 30 minutes, and the resultant supernatant was stored at -80° C. before being assayed for COX activity.
(§3) b. Assay for COX-1 and COX-2 activity COX activity was assayed as PGE2 formed/μg protein/time using an ELISA to detect the prostaglandin released. CHAPS-solubilized insect cell membranes containing the appropriate COX enzyme were incubated in a potassium phosphate buffer (50 mM, pH 8.0) containing epinephrine, phenol, and heme with the addition of arachidonic acid (10 μM). Compounds were pre-incubated with the enzyme for 10-20 minutes prior to the addition of arachidonic acid. Any reaction between the arachidonic acid and the enzyme was stopped after ten minutes at 37° C./room temperature by transferring 40 μl of reaction mix into 160 μl ELISA buffer and 25 μM indomethacin. The PGE2 formed was measured by standard ELISA technology (Cayman Chemical).

COX-2 [2] = molecular target: T2, COX-2 (Mus musculus, UniProt Q05769); assay: COX-2 activity in vitro, recombinant murine enzyme (PGE2 ELISA); format: biochemical; conditions: murine (m); 10 μM arachidonic acid, 10-20 min pre-incubation; read-out: COX-2 ID50
T2 construct: A 2.0 kb fragment containing the coding region; made in house; host or cells: SF9 insect cells (baculovirus, pVL1393)
T2 sequence (Q05769 18-604): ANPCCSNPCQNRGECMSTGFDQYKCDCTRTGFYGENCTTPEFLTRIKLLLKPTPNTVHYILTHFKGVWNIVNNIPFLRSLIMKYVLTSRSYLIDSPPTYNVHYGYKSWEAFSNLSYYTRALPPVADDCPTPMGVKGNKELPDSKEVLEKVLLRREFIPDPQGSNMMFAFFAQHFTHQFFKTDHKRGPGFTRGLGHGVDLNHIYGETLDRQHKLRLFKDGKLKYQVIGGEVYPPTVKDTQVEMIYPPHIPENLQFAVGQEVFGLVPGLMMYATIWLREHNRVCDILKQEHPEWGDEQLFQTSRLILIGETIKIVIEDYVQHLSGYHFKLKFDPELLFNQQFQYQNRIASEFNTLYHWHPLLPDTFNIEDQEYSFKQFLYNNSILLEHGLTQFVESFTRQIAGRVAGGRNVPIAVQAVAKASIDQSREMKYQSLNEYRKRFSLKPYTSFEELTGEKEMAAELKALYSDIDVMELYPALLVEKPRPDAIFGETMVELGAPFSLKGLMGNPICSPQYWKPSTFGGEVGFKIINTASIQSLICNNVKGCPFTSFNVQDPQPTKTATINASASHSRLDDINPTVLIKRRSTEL
Protocol: as §1, §2, §3

carrageenan foot edema = assay: Rat Carrageenan Foot Pad Edema Test; format: in vivo, rat (male Sprague-Dawley); conditions: @ 10 mg/kg body weight, oral, 1 h before carrageenan; read 3 h after injection
Protocol: Rat Carrageenan Foot Pad Edema Test
Male Sprague-Dawley rats were selected in each group so that the average body weight was as close as possible. Rats were fasted with free access to water for over sixteen hours prior to the test. […] One hour later a subplantar injection of 0.1 mL of 1% solution of carrageenan/sterile 0.9% saline was administered and the volume of the injected foot was measured with a displacement plethysmometer connected to a pressure transducer with a digital indicator. Three hours after the injection of the carrageenan, the volume of the foot was again measured.

COX-1 [3] = molecular target: T3, COX-1 (Homo sapiens, UniProt P23219); assay: COX-1 activity in vitro, recombinant human enzyme (PGE2 ELISA); format: biochemical; conditions: human (h); 10 μM arachidonic acid, 10-20 min pre-incubation; read-out: COX-1 ID50
T3 construct: A 2.0 kb fragment containing the coding region; made in house; host or cells: SF9 insect cells (baculovirus, pVL1393)
Protocol: as §1, §2, §3

COX-2 [4] = molecular target: T4, COX-2 (Homo sapiens, UniProt P35354); assay: COX-2 activity in vitro, recombinant human enzyme (PGE2 ELISA); format: biochemical; conditions: human (h); 10 μM arachidonic acid, 10-20 min pre-incubation; read-out: COX-2 ID50
T4 construct: A 2.0 kb fragment containing the coding region; made in house; host or cells: SF9 insect cells (baculovirus, pVL1393)
T4 sequence (P35354 18-604): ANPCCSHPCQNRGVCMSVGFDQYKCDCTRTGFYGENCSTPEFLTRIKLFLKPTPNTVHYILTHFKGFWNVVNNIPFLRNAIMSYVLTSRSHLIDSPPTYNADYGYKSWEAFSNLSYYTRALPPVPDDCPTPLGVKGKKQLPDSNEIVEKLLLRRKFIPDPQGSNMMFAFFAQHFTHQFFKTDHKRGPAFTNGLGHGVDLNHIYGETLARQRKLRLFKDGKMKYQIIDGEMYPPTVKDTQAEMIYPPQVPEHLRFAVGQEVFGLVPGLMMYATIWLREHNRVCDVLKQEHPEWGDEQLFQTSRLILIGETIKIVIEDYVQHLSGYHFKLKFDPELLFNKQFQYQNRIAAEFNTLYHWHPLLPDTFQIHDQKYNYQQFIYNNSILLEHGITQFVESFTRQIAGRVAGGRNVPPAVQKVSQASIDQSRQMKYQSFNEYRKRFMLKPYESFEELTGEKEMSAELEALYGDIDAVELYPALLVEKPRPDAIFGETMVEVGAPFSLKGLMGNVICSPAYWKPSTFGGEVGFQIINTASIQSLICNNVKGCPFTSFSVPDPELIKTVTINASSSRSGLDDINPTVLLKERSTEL
Protocol: as §1, §2, §3

T3 sequence (P23219 24-599): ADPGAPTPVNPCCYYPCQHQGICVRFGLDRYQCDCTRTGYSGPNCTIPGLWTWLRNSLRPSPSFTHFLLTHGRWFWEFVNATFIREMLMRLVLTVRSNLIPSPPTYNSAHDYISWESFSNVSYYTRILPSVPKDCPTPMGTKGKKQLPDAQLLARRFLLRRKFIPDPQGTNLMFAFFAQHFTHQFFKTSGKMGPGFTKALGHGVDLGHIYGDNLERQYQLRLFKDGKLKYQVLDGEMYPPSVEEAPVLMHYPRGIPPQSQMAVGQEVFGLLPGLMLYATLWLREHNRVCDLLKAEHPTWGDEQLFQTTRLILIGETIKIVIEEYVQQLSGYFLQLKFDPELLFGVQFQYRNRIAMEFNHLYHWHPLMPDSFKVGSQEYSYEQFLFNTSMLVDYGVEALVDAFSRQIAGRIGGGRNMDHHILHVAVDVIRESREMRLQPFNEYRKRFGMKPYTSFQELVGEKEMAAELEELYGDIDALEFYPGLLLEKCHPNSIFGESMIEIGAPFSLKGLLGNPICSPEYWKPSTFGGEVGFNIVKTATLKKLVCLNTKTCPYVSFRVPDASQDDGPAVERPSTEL

SMILES	IC50 (COX-1 [1])	IC50 (COX-2 [2])	RAT PAW EDEMA % Inhibition (carrageenan foot edema)	IC50 (COX-1 [3])	IC50 (COX-2 [4])
CS(=O)(=O)c1ccc(-c2cc(C(N)=O)cnc2-c2ccc(F)cc2)cc1 [Example 21, 6-(4-Fluorophenyl)-5-[4-(methylsulfonyl)phenyl]pyridine-3-carboxamide]	> 100 µM	105 µM	–	–	–
CS(=O)(=O)c1ccc(-c2cc(C#N)c(Cl)nc2-c2ccc(F)cc2)cc1 [Example 7, 2-Chloro-6-(4-fluorophenyl)-5-[4-(methylsulfonyl)phenyl]-pyridine-3-carbonitrile]	> 100 µM	0.1 µM	–	–	–
COc1nc(-c2ccc(S(C)(=O)=O)cc2)c(-c2ccc(F)cc2)cc1C#N [Example 23]	> 100 µM	0.3 µM	–	–	–
CS(=O)(=O)c1ccc(-c2cc(C#N)cnc2-c2ccc(F)cc2)cc1 [Example 22, 6-(4-Fluorophenyl)-5-[4-(methylsulfonyl)phenyl]pyridine-3-carbonitrile]	> 10 µM	0.3 µM	–	–	–
CS(=O)(=O)c1ccc(-c2cc(C(N)=O)c(Cl)nc2-c2ccc(F)cc2)cc1 [Example 20, 2-Chloro-6-(4-fluorophenyl)-5-[4-(methylsulfonyl)phenyl]pyridine-3-carboxamide]	> 100 µM	26.2 µM	–	–	–
CS(=O)(=O)c1ccc(-c2cc(C#N)c(Br)nc2-c2ccc(F)cc2)cc1 [Example 3, 2-Bromo-6-(4-fluorophenyl)-5-[4-(methylsulfonyl)phenyl]-pyridine-3-carbonitrile]	> 10 µM	< 0.1 µM	16%	–	–
COc1nc(-c2ccc(F)cc2)c(-c2ccc(S(C)(=O)=O)cc2)cc1C#N [Example 2, 6-(4-Fluorophenyl)-2-methoxy-5-[4-(methylsulfonyl)phenyl]-pyridine-3-carbonitrile]	–	–	16%	> 100 µM	0.2 µM
CS(=O)(=O)c1ccc(-c2cc(C#N)c(-c3ccccc3)nc2-c2ccc(F)cc2)cc1 [Example 4, 6-(4-Fluorophenyl)-5-[4-(methylsulfonyl)phenyl]-2-phenyl-pyridine-3-carbonitrile]	> 10 µM	< 0.1 µM	18%	–	–
